# From patent US20260240869A1, “ANTIPSEUDOMONAL FUSIDIC ACID COMPOUNDS” (priority 2022, published 2026)
# Read-outs that look alike come from different tables or passages of the source.
# Columns and labels:
# P. aeruginosa PAO1 [1] = assay: MIC, CLSI broth microdilution, P. aeruginosa PAO1; type: cell-based, Pseudomonas aeruginosa; conditions: for MIC: Pseudomonas aeruginosa
# Procedure, shortened: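 MIC read from microdilution in broth (CLSI method). Media: cation-adjusted Mueller-Hinton or LB Lennox. Triplicate biological repeats.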
# P. aeruginosa PA14 = assay: MIC, P. aeruginosa PA14; type: cell-based, Pseudomonas aeruginosa; conditions: Pseudomonas aeruginosa, PA14
# Description: (§1) Antimicrobial Susceptibility Tests. Susceptibility testing was performed in biological triplicate, using the microdilution broth method as outlined by the Clinical and Laboratory Standards Institute. Bacteria were cultured with cation-adjusted Meuller-Hinton broth (Sigma-Aldrich; catalogue number: 90922) or Luria-Bertani (LB) broth (Lennox) in round-bottom 96-well plates (Corning; catalogue number: 3788).
# P. aeruginosa PAO1 [2] = assay: NPN outer membrane permeability assay; type: cell-based, Pseudomonas aeruginosa; conditions: treatment for ten minutes
# From the text: Further, the fluorescent probe N-phenylnapthylamine (NPN) was used to assess outer membrane permeability changes upon treatment with FA, gentamicin, and FA prodrug. NPN is membrane impermeable and is only weakly fluorescent in aqueous solutions. Upon entry to the cell and interacting with phospholipids, significant fluorescence is observed. […] This residual membrane depolarizing antibacterial activity can be observed in the FA polyamine (FIG. 4a) and the diacylated compound (Table 9).
# P. aeruginosa PAO1 [3] = assay: DiSC3 (5) inner membrane depolarization assay; type: cell-based, Pseudomonas aeruginosa
# [4] = system: FA resistance mutants of P. aeruginosa PAO1 A6; assay: MIC in FA-resistant mutants; type: cell-based, Pseudomonas aeruginosa; conditions: mutants generated in PAO1 A6
# Description: as §1
# Selection ofresistant mutants. Resistant mutants were selected using the large inoculum method. […] Colonies were visible after incubating at 37° C. for 72 h.
# [5] = system: clinical isolates of P. aeruginosa; assay: MIC against panel of clinical isolates of P. aeruginosa; type: cell-based, Pseudomonas aeruginosa; conditions: for MIC: Pseudomonas aeruginosa
# Description: as §1
# S. aureus ATCC 29213 = assay: MIC, S. aureus ATCC 29213; type: cell-based; conditions: Staphylococcus aureus, ATCC29213, read-out: MIC S. aureus ATCC 29213
# Description: as §1
smiles,measurement,setting,value
"CC(=O)O[C@H]1C[C@@]2(C)[C@@H](C[C@@H](O)[C@H]3[C@@]4(C)CC[C@@H](O)[C@@H](C)[C@@H]4CC[C@@]32C)/C1=C(\CCC=C(C)C)C(=O)O/N=C(\N)CNCCCNCCCNCCCN [FA prodrug, (3R, 4S,5S,8S,9S,10S,11R,13R,14S,16S,Z)-17-((Z)-1,14-diamino-22-methyl-17-oxo-16-oxa-4,8,12,15-tetraazatricosa-14,21-dien-18-ylidene)-3,11-dihydroxy-4,8,10,14-tetramethylhexadecahydro-1H-cyclopenta[a]phenanthren-16-yl acetate]",MIC against P. aeruginosa PAO1,P. aeruginosa PAO1 [1],4 µg/mL
same,Fold change (MIC),P. aeruginosa PAO1 [1]; 5 mM MgCl2/CAMH versus CAMH (Table 10),32X
same,"MIC P. aeruginosa PAO1, CAMH",P. aeruginosa PAO1 [1]; CAMH (Table 10),4 µg/mL
same,shift in MIC on co-treatment with 5 mM MgCl2,P. aeruginosa PAO1 [1]; P. aeruginosa PAO1,32 -fold
same,increase in activity relative to FA,P. aeruginosa PAO1 [1]; PAO1 MIC,256 -fold
same,MIC,P. aeruginosa PAO1 [1]; PAO1,4 µg/mL
same,MIC,"P. aeruginosa PAO1 [1]; PAO1, read-out: MIC P. aeruginosa PAO1",4 µg/mL
same,MIC,"P. aeruginosa PAO1 [1]; PAO1, read-out: P. aeruginosa PAO1 MIC",4 µg/mL
same,"MIC P. aeruginosa PAO1, 5 mM MgCl2/CAMH",P. aeruginosa PAO1 [1]; co-treatment 5 mM MgCl2 in CAMH (Table 10),128
same,MIC,P. aeruginosa PA14,8 µg/mL
same,NPN fluorescence (outer membrane permeability),P. aeruginosa PAO1 [2],dose-dependent increase
same,inner membrane depolarization (DiSC3 (5) fluorescence),P. aeruginosa PAO1 [3],dose-dependent inner membrane depolarization
same,MIC fold change in FA-resistant strains,[4],several fold change
same,improved activity relative to FA against 75 clinical isolates,[5]; FIG. 5c,64-256 ×
same,MIC,[5]; AR Bank Isolate # 0054,16 µg/mL
same,MIC,[5]; AR Bank Isolate # 0064,16 µg/mL
same,MIC,[5]; AR Bank Isolate # 0090,16 µg/mL
same,MIC,[5]; AR Bank Isolate # 0092,16 µg/mL
same,MIC,[5]; AR Bank Isolate # 0095,16 µg/mL
same,MIC,[5]; AR Bank Isolate # 0100,16 µg/mL
same,MIC,[5]; AR Bank Isolate # 0103,16 µg/mL
same,MIC,[5]; AR Bank Isolate # 0110,16 µg/mL
same,MIC,[5]; AR Bank Isolate # 0229,16 µg/mL
same,MIC,[5]; AR Bank Isolate # 0230,16 µg/mL
same,MIC,[5]; AR Bank Isolate # 0231,8 µg/mL
same,MIC,[5]; AR Bank Isolate # 0232,16 µg/mL
same,MIC,[5]; AR Bank Isolate # 0233,16 µg/mL
same,MIC,[5]; AR Bank Isolate # 0234,8 µg/mL
same,MIC,[5]; AR Bank Isolate # 0235,8 µg/mL
same,MIC,[5]; AR Bank Isolate # 0236,16 µg/mL
same,MIC,[5]; AR Bank Isolate # 0237,16 µg/mL
same,MIC,[5]; AR Bank Isolate # 0239,8 µg/mL
same,MIC,[5]; AR Bank Isolate # 0240,16 µg/mL
same,MIC,[5]; AR Bank Isolate # 0241,16 µg/mL
same,MIC,[5]; AR Bank Isolate # 0242,8 µg/mL
same,MIC,[5]; AR Bank Isolate # 0243,16 µg/mL
same,MIC,[5]; AR Bank Isolate # 0244,16 µg/mL
same,MIC,[5]; AR Bank Isolate # 0245,16 µg/mL
same,MIC,[5]; AR Bank Isolate # 0246,8 µg/mL
same,MIC,[5]; AR Bank Isolate # 0248,8 µg/mL
same,MIC,[5]; AR Bank Isolate # 0250,16 µg/mL
same,MIC,[5]; AR Bank Isolate # 0252,16 µg/mL
same,MIC,[5]; AR Bank Isolate # 0254,32 µg/mL
same,MIC,[5]; AR Bank Isolate # 0265,16 µg/mL
same,MIC,[5]; AR Bank Isolate # 0763,16 µg/mL
same,MIC,[5]; AR Bank Isolate # 0767,16 µg/mL
same,MIC,[5]; AR Bank Isolate # 0769,16 µg/mL
same,MIC,[5]; AR Bank Isolate # 0772,8 µg/mL
same,MIC,[5]; Carle Isolate ID # Cl-02,8 µg/mL
same,MIC,[5]; Carle Isolate ID # Cl-03,8 µg/mL
same,MIC,[5]; Carle Isolate ID # Cl-04,16 µg/mL
same,MIC,[5]; Carle Isolate ID # Cl-05,8 µg/mL
same,MIC,[5]; Carle Isolate ID # Cl-06,8 µg/mL
same,MIC,[5]; Carle Isolate ID # Cl-07,8 µg/mL
same,MIC,[5]; Carle Isolate ID # Cl-08,8 µg/mL
same,MIC,[5]; Carle Isolate ID # Cl-09,8 µg/mL
same,MIC,[5]; Carle Isolate ID # Cl-10,16 µg/mL
same,MIC,[5]; Carle Isolate ID # Cl-11,8 µg/mL
same,MIC,[5]; Carle Isolate ID # Cl-12,8 µg/mL
same,MIC,[5]; Carle Isolate ID # Cl-13,16 µg/mL
same,MIC,[5]; Carle Isolate ID # Cl-14,8 µg/mL
same,MIC,[5]; Carle Isolate ID # Cl-15,8 µg/mL
same,MIC,[5]; Carle Isolate ID # Cl-19,8 µg/mL
same,MIC,[5]; Cubist Strain ID # 996,8 µg/mL
same,MIC,[5]; Cubist Strain ID # 997,8 µg/mL
same,MIC,[5]; Cubist Strain ID # 998,8 µg/mL
same,MIC,[5]; Cubist Strain ID # 999,8 µg/mL
same,MIC,[5]; Cubist Strain ID # 1000,16 µg/mL
same,MIC,[5]; Cubist Strain ID # 1001,16 µg/mL
same,MIC,[5]; Cubist Strain ID # 1174,16 µg/mL
same,MIC,[5]; Cubist Strain ID # 1175,16 µg/mL
same,MIC,[5]; Cubist Strain ID # 1176,16 µg/mL
same,MIC,[5]; Cubist Strain ID # 1280,16 µg/mL
same,MIC,[5]; Cubist Strain ID # 1282,16 µg/mL
same,MIC,[5]; Cubist Strain ID # 1283,16 µg/mL
same,MIC,[5]; Cubist Strain ID # 1284,16 µg/mL
same,MIC,[5]; Cubist Strain ID # 1586,16 µg/mL
same,MIC,[5]; Cubist Strain ID # 1590,32 µg/mL
same,MIC,[5]; Cubist Strain ID # 1591,32 µg/mL
same,MIC,[5]; Cubist Strain ID # 1592,32 µg/mL
same,MIC,[5]; Cubist Strain ID # 1905,16 µg/mL
same,MIC,[5]; Cubist Strain ID # 1906,16 µg/mL
same,MIC,[5]; Cubist Strain ID # 2242,8 µg/mL
same,MIC,[5]; Cubist Strain ID # 2243,16 µg/mL
same,MIC,[5]; Cubist Strain ID # 2244,8 µg/mL
same,MIC,[5]; Other strains (ref.) 1113,16 µg/mL
same,MIC,[5]; Other strains (ref.) 1727,8 µg/mL
same,MIC,S. aureus ATCC 29213,1 µg/mL
